Where no end group is shown, it is not given here.
What was measured:
[1] = tested on: rats experimentally sensitised to ovalbumin; experiment: Serum histamine after systemic allergen (ovalbumin) challenge of sensitised, peptide-immunised rats; type: in vivo, rat
Description: Groups of rats (male, Wistar) were hypersensitized by subcutaneous injection of a mixture (0.5 ml) of 0.5 ml chicken egg white (200 mg protein) and 2.5 ml Bordetella pertussis (40×10^10 organisms/ml)by a well-established experimental procedure (Jasani, B. and Stanworth, D. R., Journal of Immunologlcal Methods, 30, pp. 55-68 (1979)).
Repeat subcutaneous injections of the peptide-carrier protein conjugate mixed with incomplete Freund's adjuvant (IFA) were administered at days 14 and 21.
The effect of pre- or post-sensitisation immunisation with peptide (as described in section (b) above) on the state of hypersensitivity of rats which had been experimentally sensitised to ovalbumin (according to Example 5(a) above) was determined by the following procedure; similar investigations were carried out on non-immunised groups of rats as a control.
Animals from both the immunized and control groups were bled (from the tail vein) prior to systemic allergen challenge by intrapenal injection of ovalbumin (5 mg). The animals were sacrificed 10 min. later, whereupon a further sample of blood was obtained from their hearts. The histamine levels in serum from both pre-and post-allergen challenge blood samples were determined by a standard automated spectrofluorimetric procedure; the antibody profiles of the sera being determined by ELISA (according to Example 5(c) above).

[2] = tested on: rat peritoneal mast cells; parameters: dose or concentration left out as unconfirmed; settings: concentration range; cited from earlier work
[3] = A: immunised with peptide (PPD conjugate) before experimental sensitisation
[4] = B: immunised with peptide (PPD conjugate) after experimental sensitisation

Row | Substance | Histamine release (mean allergen-induced serum histamine level) [1, 3] [ng/mL] | Histamine release (mean allergen-induced serum histamine level) [1, 4] [ng/mL] | effect on allergen-induced histamine release ([1]; pre- or post-immunisation of experimentally sensitised rats) | non-cytolytic histamine release from rat peritoneal mast cells [2]
1 | F57: non-histamine releasing analogue of F49 in which the N-terminal lysine residue is replaced by glycine (GYNGSNQRFFIF-NH2) | 606 | 1159 | no significant effect | 
2 | KTKGSGFF [octapeptide (sequence 497-504), human IgE Cε4 residues 497-504] |  |  |  | dose-dependent histamine release
3 | KTKGSGFFVF [decapeptide (sequence 497-506), human IgE Cε4 residues 497-506] |  |  |  | dose-dependent histamine release
4 | Lys-Tyr-Asn-Gly-Ser-Asn-Gln-Arg-Phe-Phe-Ile-Phe-NH2 (KYNGSNQRFFIF-NH2) [F49, histamine releasing rat ε-chain dodecapeptide] | 0 | 50 |  | 
5 | RKTKGSGFF [nonapeptide (sequence 496-504), human IgE Cε4 residues 496-504] |  |  |  | dose-dependent histamine release

— US5601821A, “Immunoactive peptides and antibodies and their use in anti-allergy treatment” (National Research Development Corporation, priority 1989, dated 1997)
